Experimental data reported in ChEMBL document CHEMBL2321663, “Alkaloids from Sri Lankan curry-leaf (Murraya koenigii) display melanogenesis inhibitory activity: structures of karapinchamines A and B” (Bioorg Med Chem, 2013).

How the values were obtained:
[1] = target: T1, Tyrosinase (Agaricus bisporus) (UniProt O42713); assay: Inhibition of mushroom tyrosinase using L-DOPA as substrate after at 100 uM after 5 mins relative to control
T1 sequence (whole entry): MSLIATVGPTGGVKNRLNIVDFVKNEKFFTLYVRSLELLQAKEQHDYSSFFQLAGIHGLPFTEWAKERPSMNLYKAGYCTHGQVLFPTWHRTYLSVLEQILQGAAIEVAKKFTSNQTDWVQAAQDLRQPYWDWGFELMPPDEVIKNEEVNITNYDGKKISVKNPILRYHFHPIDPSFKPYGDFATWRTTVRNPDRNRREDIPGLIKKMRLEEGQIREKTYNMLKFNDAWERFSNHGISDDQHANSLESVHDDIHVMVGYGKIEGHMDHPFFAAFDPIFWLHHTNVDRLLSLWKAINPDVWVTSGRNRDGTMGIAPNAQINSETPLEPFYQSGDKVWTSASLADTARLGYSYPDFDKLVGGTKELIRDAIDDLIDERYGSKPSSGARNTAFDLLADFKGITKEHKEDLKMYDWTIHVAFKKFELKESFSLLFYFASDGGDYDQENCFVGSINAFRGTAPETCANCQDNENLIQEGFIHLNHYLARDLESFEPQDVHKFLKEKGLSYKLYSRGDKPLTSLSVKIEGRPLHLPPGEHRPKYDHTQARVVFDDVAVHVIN

[2] = target: T1, Tyrosinase (Agaricus bisporus); assay: Inhibition of mushroom tyrosinase using L-DOPA as substrate after at 30 uM after 5 mins relative to control
[3] = target: T1, Tyrosinase (Agaricus bisporus); assay: Inhibition of mushroom tyrosinase using L-DOPA as substrate after at 10 uM after 5 mins relative to control
[4] = target: T1, Tyrosinase (Agaricus bisporus); assay: Inhibition of mushroom tyrosinase using L-DOPA as substrate after at 3 uM after 5 mins relative to control
[5] = target: T1, Tyrosinase (Agaricus bisporus); assay: Inhibition of mushroom tyrosinase using L-DOPA as substrate after at 1 uM after 5 mins relative to control
[6] = Cytotoxicity against mouse theophylline-induced B16-4A5 cells assessed as cell viability at 10 uM after 72 hrs by WST8 assay relative to control; assay type: cell-based; conditions: read-out: Activity
[7] = Cytotoxicity against mouse theophylline-induced B16-4A5 cells assessed as cell viability at 30 uM after 72 hrs by WST8 assay relative to control; assay type: cell-based; conditions: read-out: Activity
[8] = Cytotoxicity against mouse theophylline-induced B16-4A5 cells assessed as cell viability at 3 uM after 72 hrs by WST8 assay relative to control; assay type: cell-based; conditions: read-out: Activity
[9] = Cytotoxicity against mouse theophylline-induced B16-4A5 cells assessed as cell viability at 1 uM after 72 hrs by WST8 assay relative to control; assay type: cell-based; conditions: read-out: Activity
[10] = Inhibition of theophylline-induced melanogenesis in mouse B16-4A5 cells after 72 hrs by spectrophotometric analysis relative to control; assay type: functional, cell-based
[11] = Inhibition of theophylline-induced melanogenesis in mouse B16-4A5 cells at 10 uM after 72 hrs by spectrophotometric analysis relative to control; assay type: functional; conditions: B16-4A5, 72 h
[12] = Inhibition of theophylline-induced melanogenesis in mouse B16-4A5 cells at 30 uM after 72 hrs by spectrophotometric analysis relative to control; assay type: functional; conditions: B16-4A5, 72 h
[13] = Inhibition of theophylline-induced melanogenesis in mouse B16-4A5 cells at 1 uM after 72 hrs by spectrophotometric analysis relative to control; assay type: functional; conditions: B16-4A5, 72 h
[14] = Inhibition of theophylline-induced melanogenesis in mouse B16-4A5 cells at 3 uM after 72 hrs by spectrophotometric analysis relative to control; assay type: functional; conditions: B16-4A5, 72 h
[15] = Inhibition of theophylline-induced melanogenesis in mouse B16-4A5 cells at 1000 uM after 72 hrs by spectrophotometric analysis relative to control; assay type: functional; conditions: B16-4A5, 72 h
[16] = Inhibition of theophylline-induced melanogenesis in mouse B16-4A5 cells at 300 uM after 72 hrs by spectrophotometric analysis relative to control; assay type: functional; conditions: B16-4A5, 72 h
[17] = Inhibition of theophylline-induced melanogenesis in mouse B16-4A5 cells at 100 uM after 72 hrs by spectrophotometric analysis relative to control; assay type: functional; conditions: B16-4A5, 72 h

Row | SMILES | inhibition [1] [%] | inhibition [2] [%] | inhibition [3] [%] | inhibition [4] [%] | inhibition [5] [%] | IC50 [10] [µM] | viability at 72 h, 10 µM [6] [%] | viability at 72 h, 30 µM [7] [%] | viability at 72 h, 3 µM [8] [%] | viability at 72 h, 1 µM [9] [%] | inhibition at 10 µM [11] [%] | inhibition at 30 µM [12] [%] | inhibition at 1 µM [13] [%] | inhibition at 3 µM [14] [%] | inhibition at 1000 µM [15] [%] | inhibition at 300 µM [16] [%] | inhibition at 100 µM [17] [%]
1 | c1ccc2c(c1)[nH]c1ccccc12 [CARBAZOLE] | 0.1 | 1.7 | -2.2 | -1.8 | 1 | > 100 | 105 | 94.2 | 108 | 108 | 36.8 | 33.8 | 31.3 | 33.5 | – | – | –
2 | Oc1cccc2[nH]c3ccccc3c12 | 3.3 | 0.9 | 0.5 | 0.3 | 0.4 | 13.5 | 104 | 131 | 100 | 101 | 36.1 | 66.9 | 24.9 | 32.9 | – | – | –
3 | Cc1cc2c3ccc(O)cc3n3c2c2c1O[C@@]1(C)CC[C@H]([C@H]2C1)C3(C)C (relative stereo) | 20.2 | 15.3 | 3.5 | -0.6 | -1.3 | 2.9 | 76.8 | 71.1 | 94.4 | 101 | 66 | 74.3 | 26.9 | 50.8 | – | – | –
4 | CC(C)=CCC/C(C)=C/Cc1c(O)ccc2[nH]c3ccc(C)cc3c12 [EUSTIFOLINE C] | 16.1 | 5.9 | 2.3 | 2.7 | 1 | 8.3 | 79.2 | 9.9 | 96.5 | 104 | 55.9 | – | 19.7 | 25.2 | – | – | –
5 | COc1ccc2c([nH]c3cc(O)c(C)cc32)c1C/C=C(\C)CCC=C(C)C [EUCHRESTINE B] | -1.1 | -6.4 | -4.3 | -4.4 | -6.5 | 4.1 | 83.7 | 1.9 | 102 | 105 | 74.2 | – | 18.2 | 40.6 | – | – | –
6 | OC[C@H]1O[C@@H](Oc2ccc(O)cc2)[C@H](O)[C@@H](O)[C@@H]1O [ARBUTIN] | – | – | – | – | – | 174 | – | – | – | – | – | 20.4 | – | – | 83.7 | 61.5 | 38.1
7 | CC(C)=CCCC1(C)C=Cc2c(ccc3c2[nH]c2ccc(C)cc23)O1 (centres undefined) | -3.4 | -0.3 | -1.1 | -0.7 | 7.4 | 2.2 | 103 | 63.9 | 117 | 110 | 85.2 | 78.4 | 25.9 | 60 | – | – | –

Further lines, with some results ahead:

Row | inhibition [1] [%] | inhibition [2] [%] | inhibition [3] [%] | inhibition [4] [%] | inhibition [5] [%] | IC50 [10] [µM] | SMILES | viability at 72 h, 10 µM [6] [%] | viability at 72 h, 30 µM [7] [%] | viability at 72 h, 3 µM [8] [%] | viability at 72 h, 1 µM [9] [%] | inhibition at 10 µM [11] [%] | inhibition at 30 µM [12] [%] | inhibition at 1 µM [13] [%] | inhibition at 3 µM [14] [%] | inhibition at 1000 µM [15] [%] | inhibition at 300 µM [16] [%] | inhibition at 100 µM [17] [%]
8 | 6.2 | 2.7 | -0.4 | -3.2 | -1.3 | 1.4 | CC(C)=CCCC1(C)C=Cc2c(c(C)cc3c2[nH]c2ccccc23)O1 (centres undefined) [MAHANIMBINE] | 34.4 | 35.1 | 68.7 | 94.3 | – | – | 43.3 | 63.9 | – | – | –
9 | 4.2 | 0.9 | 0.1 | 0.1 | 0.1 | 15.7 | COc1ccc2c(c1)[nH]c1c3c(c(C)cc12)O[C@](C)(CCC=C(C)C)C=C3 | 94.9 | 66.3 | 98.7 | 105 | 40.8 | 58.3 | 10.9 | 8.7 | – | – | –
10 | -0.8 | 2.7 | -2.8 | -2.8 | -1 | 3.8 | COc1cccc2c1[nH]c1c3c(c(C)cc12)OC(C)(CCC=C(C)C)C=C3 (centres undefined) | 73.8 | 46.3 | 97.3 | 101 | 71.8 | – | 6.8 | 40.4 | – | – | –
11 | 4.3 | 1 | -0.1 | -1 | 0.7 | 1.2 | COc1ccc2[nH]c3c4c(c(C)cc3c2c1)OC(C)(C)C=C4 [KOENIMBINE] | 66.6 | 37.9 | 92.4 | 114 | 86.2 | – | 42.5 | 77 | – | – | –
